Assay results reported in patent US20040072205A1, “Methods for treating neuronal disorders” (priority 2002, published 2004).

What was measured:
human patients with ALS = details: cited from earlier work
[1] = tested on: hSOD1^G93A transgenic ALS mice; experiment: Minocycline treatment of ALS mice: Rotarod onset and mortality; format: in vivo, mouse
Experimental: We tested the effectiveness of minocycline on a mouse model of ALS and investigated its mechanism of neuroprotection. […] We evaluated the effect of minocycline on one of the ALS mouse models expressing the mutant human SOD1^G93A transgene. Minocycline (10 mg/kg body weight/day) was injected beginning at five weeks of age. Mutant hSOD1^G93A transgenic mice were evaluated weekly on a Rotarod to follow disease progression.
Minocycline administration started at six weeks of age at a slightly higher dose (11 mg/kg body weight/day).
ALS mice (Jackson Laboratories, Bar Harbor, Me.) were injected intraperitoneally daily with saline or minocycline (Sigma, St. Louis, Mo.). Strength and coordination were evaluated weekly by Rotarod (Columbus Instruments, Columbus, Ohio). Disease onset was defined as the first day a mouse could not remain on the Rotarod for 10 min at 15 rpm. Mortality was scored as age of death or age when the mouse was unable to right itself within 30 seconds (Li et al., supra).

Compound	side effects (human patients with ALS)	Onset of impaired motor performance (Rotarod), age ([1]; 10 mg/kg body weight/day i.p. from five weeks of age, saline 90.3±2.2 days, P<0.001)	Survival, age ([1]; 10 mg/kg body weight/day i.p. from five weeks of age, saline 125.6±3.4 days, P<0.01)	Mortality, age ([1]; modified protocol: 11 mg/kg body weight/day from six weeks of age, n=8/group, saline 126.3±2.7 days, P<0.05)
Nc1nc2ccc(OC(F)(F)F)cc2s1 [riluzole]	causes liver damage			
CN(C)c1ccc(O)c2c1C[C@H]1C[C@H]3[C@H](N(C)C)C(O)=C(C(N)=O)C(=O)[C@@]3(O)C(O)=C1C2=O [Minocycline]		109.0 ± 1.5 days	136.8 ± 1.2 days	139.0 ± 2.1 days
